Test results taken from ChEMBL document CHEMBL2390893, “Natural product hybrid and its superacid synthesized analogues: dodoneine and its derivatives show selective inhibition of carbonic anhydrase isoforms I, III, XIII and XIV” (Bioorg Med Chem, 2013).
Active and inactive are the calls of the source. The calls are words filed in the database; no cut-off is given here.

Assays:
[1] = biological target: T1, Carbonic anhydrase 9 (Homo sapiens, UniProt Q16790); experiment: Inhibition of human carbonic anhydrase 9 preincubated for 15 mins by stopped flow CO2 hydrase assay
[2] = biological target: T2, Carbonic anhydrase 2 (Homo sapiens, UniProt P00918); experiment: Inhibition of human carbonic anhydrase 2 preincubated for 15 mins by stopped flow CO2 hydrase assay
[3] = biological target: T3, Carbonic anhydrase 3 (Homo sapiens, UniProt P07451); experiment: Inhibition of human carbonic anhydrase 3 at >100 uM preincubated for 15 mins by stopped flow CO2 hydrase assay
[4] = biological target: T4, Carbonic anhydrase 12 (Homo sapiens, UniProt O43570); experiment: Inhibition of human carbonic anhydrase 12 preincubated for 15 mins by stopped flow CO2 hydrase assay
[5] = biological target: T5, Carbonic anhydrase 1 (Homo sapiens, UniProt P00915); experiment: Inhibition of human carbonic anhydrase 1 preincubated for 15 mins by stopped flow CO2 hydrase assay
Target sequence in this assay (P00915 whole entry): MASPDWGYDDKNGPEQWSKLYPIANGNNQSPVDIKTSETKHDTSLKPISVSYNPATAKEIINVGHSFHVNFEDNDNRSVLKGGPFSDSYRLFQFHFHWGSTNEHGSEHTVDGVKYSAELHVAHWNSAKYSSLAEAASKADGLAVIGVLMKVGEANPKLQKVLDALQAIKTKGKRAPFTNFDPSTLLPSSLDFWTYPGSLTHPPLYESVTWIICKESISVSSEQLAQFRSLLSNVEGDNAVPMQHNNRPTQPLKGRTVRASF

[6] = biological target: T6, Carbonic anhydrase 14 (Homo sapiens, UniProt Q9ULX7); experiment: Inhibition of human carbonic anhydrase 14 preincubated for 15 mins by stopped flow CO2 hydrase assay
[7] = biological target: T7, Carbonic anhydrase 7 (Homo sapiens, UniProt P43166); experiment: Inhibition of human carbonic anhydrase 7 at >100 uM preincubated for 15 mins by stopped flow CO2 hydrase assay
[8] = biological target: Carbonic anhydrase 6 (Homo sapiens) (UniProt P23280); experiment: Inhibition of human carbonic anhydrase 6 at >100 uM preincubated for 15 mins by stopped flow CO2 hydrase assay
[9] = biological target: T8, Carbonic anhydrase 5A, mitochondrial (Homo sapiens, UniProt P35218); experiment: Inhibition of human carbonic anhydrase 5a preincubated for 15 mins by stopped flow CO2 hydrase assay
[10] = biological target: T9, Carbonic anhydrase 5B, mitochondrial (Homo sapiens, UniProt Q9Y2D0); experiment: Inhibition of human carbonic anhydrase 5b preincubated for 15 mins by stopped flow CO2 hydrase assay
[11] = biological target: Carbonic anhydrase 13 (Mus musculus, UniProt Q9D6N1); experiment: Inhibition of mouse carbonic anhydrase 13 preincubated for 15 mins by stopped flow CO2 hydrase assay
[12] = biological target: T10, Carbonic anhydrase 4 (Homo sapiens, UniProt P22748); experiment: Inhibition of human carbonic anhydrase 4 preincubated for 15 mins by stopped flow CO2 hydrase assay
[13] = biological target: T2, Carbonic anhydrase 2; experiment: Inhibition of human carbonic anhydrase 2 at >100 uM preincubated for 15 mins by stopped flow CO2 hydrase assay
[14] = biological target: T8, Carbonic anhydrase 5A, mitochondrial; experiment: Inhibition of human carbonic anhydrase 5a at >100 uM preincubated for 15 mins by stopped flow CO2 hydrase assay
[15] = biological target: T9, Carbonic anhydrase 5B, mitochondrial; experiment: Inhibition of human carbonic anhydrase 5b at >100 uM preincubated for 15 mins by stopped flow CO2 hydrase assay
[16] = biological target: T4, Carbonic anhydrase 12; experiment: Inhibition of human carbonic anhydrase 12 at >100 uM preincubated for 15 mins by stopped flow CO2 hydrase assay
[17] = biological target: T3, Carbonic anhydrase 3; experiment: Inhibition of human carbonic anhydrase 3 preincubated for 15 mins by stopped flow CO2 hydrase assay
[18] = biological target: T1, Carbonic anhydrase 9; experiment: Inhibition of human carbonic anhydrase 9 at >100 uM preincubated for 15 mins by stopped flow CO2 hydrase assay
[19] = biological target: T5, Carbonic anhydrase 1; experiment: Inhibition of human carbonic anhydrase 1 at >100 uM preincubated for 15 mins by stopped flow CO2 hydrase assay
Target sequence in this assay (P00915 2-261 limits assumed): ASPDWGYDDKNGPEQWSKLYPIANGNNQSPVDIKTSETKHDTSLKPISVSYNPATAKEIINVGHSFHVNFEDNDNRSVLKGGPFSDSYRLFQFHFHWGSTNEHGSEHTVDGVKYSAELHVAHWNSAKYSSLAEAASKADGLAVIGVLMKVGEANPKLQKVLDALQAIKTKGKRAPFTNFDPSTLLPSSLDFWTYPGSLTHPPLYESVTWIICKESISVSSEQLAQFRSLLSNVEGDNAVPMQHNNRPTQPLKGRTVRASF

[20] = biological target: T6, Carbonic anhydrase 14; experiment: Inhibition of human carbonic anhydrase 14 at >100 uM preincubated for 15 mins by stopped flow CO2 hydrase assay
[21] = biological target: T10, Carbonic anhydrase 4; experiment: Inhibition of human carbonic anhydrase 4 at >100 uM preincubated for 15 mins by stopped flow CO2 hydrase assay
[22] = biological target: T7, Carbonic anhydrase 7; experiment: Inhibition of human carbonic anhydrase 7 preincubated for 15 mins by stopped flow CO2 hydrase assay

Chain of Carbonic anhydrase 13 (Q9D6N1 whole entry): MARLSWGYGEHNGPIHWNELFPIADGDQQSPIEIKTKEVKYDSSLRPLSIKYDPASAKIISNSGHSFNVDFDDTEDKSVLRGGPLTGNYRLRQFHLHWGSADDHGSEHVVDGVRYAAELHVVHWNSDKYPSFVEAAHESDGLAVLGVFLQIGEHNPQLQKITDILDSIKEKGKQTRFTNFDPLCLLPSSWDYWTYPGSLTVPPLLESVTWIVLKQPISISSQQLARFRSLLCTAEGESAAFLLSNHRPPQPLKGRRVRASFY
T3 sequence (P07451 whole entry): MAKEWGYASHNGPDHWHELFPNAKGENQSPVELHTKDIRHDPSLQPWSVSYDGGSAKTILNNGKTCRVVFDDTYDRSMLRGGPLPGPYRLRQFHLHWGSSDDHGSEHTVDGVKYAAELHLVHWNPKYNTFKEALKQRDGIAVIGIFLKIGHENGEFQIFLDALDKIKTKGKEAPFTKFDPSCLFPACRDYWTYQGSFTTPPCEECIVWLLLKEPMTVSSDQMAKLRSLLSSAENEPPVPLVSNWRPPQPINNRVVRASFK
T9 sequence (Q9Y2D0 whole entry): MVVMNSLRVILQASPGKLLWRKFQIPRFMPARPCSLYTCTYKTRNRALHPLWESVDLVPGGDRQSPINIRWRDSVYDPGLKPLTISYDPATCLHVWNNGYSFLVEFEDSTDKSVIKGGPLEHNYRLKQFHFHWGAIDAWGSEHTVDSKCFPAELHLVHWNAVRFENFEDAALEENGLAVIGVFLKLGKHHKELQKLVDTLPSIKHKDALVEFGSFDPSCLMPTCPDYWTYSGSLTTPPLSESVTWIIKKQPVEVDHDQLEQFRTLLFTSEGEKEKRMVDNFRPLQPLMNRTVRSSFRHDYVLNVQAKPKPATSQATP
Chain of Carbonic anhydrase 6 (Homo sapiens) (P23280 whole entry): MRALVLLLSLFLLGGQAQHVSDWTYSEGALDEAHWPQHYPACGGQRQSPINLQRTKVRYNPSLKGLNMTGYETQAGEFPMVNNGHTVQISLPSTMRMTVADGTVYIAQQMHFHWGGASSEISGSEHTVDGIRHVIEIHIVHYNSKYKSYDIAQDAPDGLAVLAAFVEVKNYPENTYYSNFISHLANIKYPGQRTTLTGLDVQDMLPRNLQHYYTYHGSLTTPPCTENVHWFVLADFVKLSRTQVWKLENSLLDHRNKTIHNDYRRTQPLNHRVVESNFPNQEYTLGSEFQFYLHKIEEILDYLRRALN
T4 sequence (O43570 whole entry): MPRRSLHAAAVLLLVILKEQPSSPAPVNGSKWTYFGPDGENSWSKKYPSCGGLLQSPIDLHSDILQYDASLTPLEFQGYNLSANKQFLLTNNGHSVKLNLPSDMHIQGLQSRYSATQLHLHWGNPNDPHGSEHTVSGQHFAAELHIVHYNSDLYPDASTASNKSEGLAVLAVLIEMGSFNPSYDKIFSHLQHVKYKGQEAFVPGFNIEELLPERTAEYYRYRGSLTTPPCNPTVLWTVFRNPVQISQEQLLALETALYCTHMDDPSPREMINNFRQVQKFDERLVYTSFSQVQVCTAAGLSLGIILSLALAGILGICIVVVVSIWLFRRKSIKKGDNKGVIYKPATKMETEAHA
T8 sequence (P35218 whole entry): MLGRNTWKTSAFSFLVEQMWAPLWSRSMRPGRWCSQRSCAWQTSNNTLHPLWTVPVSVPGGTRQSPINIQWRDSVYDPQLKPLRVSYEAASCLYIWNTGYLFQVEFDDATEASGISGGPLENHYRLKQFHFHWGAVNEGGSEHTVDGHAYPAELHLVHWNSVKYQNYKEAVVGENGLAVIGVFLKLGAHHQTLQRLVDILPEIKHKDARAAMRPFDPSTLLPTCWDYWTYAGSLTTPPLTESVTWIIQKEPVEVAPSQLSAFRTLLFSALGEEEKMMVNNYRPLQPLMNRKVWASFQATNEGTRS
T6 sequence (Q9ULX7 whole entry): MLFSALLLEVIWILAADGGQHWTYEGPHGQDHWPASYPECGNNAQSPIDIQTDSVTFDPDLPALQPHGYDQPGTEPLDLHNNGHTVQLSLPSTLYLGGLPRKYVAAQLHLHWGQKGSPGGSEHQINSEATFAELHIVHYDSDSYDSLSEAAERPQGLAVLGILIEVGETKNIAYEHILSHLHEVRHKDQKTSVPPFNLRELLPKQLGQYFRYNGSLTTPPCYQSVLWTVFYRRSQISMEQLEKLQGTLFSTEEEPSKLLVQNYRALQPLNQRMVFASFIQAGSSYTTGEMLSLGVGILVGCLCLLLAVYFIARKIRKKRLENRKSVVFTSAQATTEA
T10 sequence (P22748 whole entry): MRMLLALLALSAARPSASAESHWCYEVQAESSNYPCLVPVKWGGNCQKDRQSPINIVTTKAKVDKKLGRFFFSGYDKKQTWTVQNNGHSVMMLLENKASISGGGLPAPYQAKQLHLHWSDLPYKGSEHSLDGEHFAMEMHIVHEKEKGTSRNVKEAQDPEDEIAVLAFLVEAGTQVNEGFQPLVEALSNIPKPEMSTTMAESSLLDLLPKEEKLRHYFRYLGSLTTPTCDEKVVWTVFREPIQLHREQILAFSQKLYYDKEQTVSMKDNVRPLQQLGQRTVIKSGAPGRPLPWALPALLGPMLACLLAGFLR
T7 sequence (P43166 whole entry): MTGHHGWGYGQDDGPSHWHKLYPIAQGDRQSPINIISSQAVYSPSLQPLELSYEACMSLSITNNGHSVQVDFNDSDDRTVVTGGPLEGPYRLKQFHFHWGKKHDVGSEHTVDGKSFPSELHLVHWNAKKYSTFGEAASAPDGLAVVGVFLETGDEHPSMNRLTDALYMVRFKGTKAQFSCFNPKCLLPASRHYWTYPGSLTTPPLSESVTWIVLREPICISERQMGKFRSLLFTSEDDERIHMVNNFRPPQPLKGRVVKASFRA

Row | SMILES | Ki [1] [µM] | Ki [2] [µM] | inhibition [3] | Ki [4] [µM] | Ki [5] [µM] | Ki [6] [µM] | inhibition [7] | inhibition [8] | Ki [9] [µM] | Ki [10] [µM] | Ki [11] [µM] | Ki [12] [µM] | inhibition [13] | inhibition [14] | inhibition [15] | inhibition [16] | Ki [17] [µM] | inhibition [18] | inhibition [19] | inhibition [20] | also measured
1 | O=C1C=CC[C@H](C[C@@H](O)CCc2cc(Br)c(O)cc2Br)O1 | 15.7 | 21.8 | inactive | 10.8 | 0.76 | 12.5 | inactive | inactive | 8.55 | 6.32 | 7.89 | 13.7 |  |  |  |  |  |  |  |  | 
2 | O=C1C=CC[C@H](C[C@@H](O)CCc2ccc(O)cc2O)O1 | 32.6 |  | inactive | 24.5 | 0.38 | 7.24 | inactive | inactive | 21.6 | 13.7 | 8.13 | 4.12 | inactive |  |  |  |  |  |  |  | 
3 | O=C1C=CC[C@H](C[C@@H](O)CCc2ccc(O)cc2)O1 |  |  |  |  | 5.48 | 9.34 | inactive | inactive |  |  | 9.27 | 9.61 | inactive | inactive | inactive | inactive | 10.3 | inactive |  |  | 
4 | O=C1C[C@H]2C[C@H](C[C@H](CCc3ccc(O)cc3O)O2)O1 |  |  |  |  |  |  | inactive | inactive |  |  | 0.34 |  | inactive | inactive | inactive | inactive | 5.13 | inactive | inactive | inactive | inhibition [21]: inactive
5 | O=C1C[C@H]2C[C@H](C[C@H](CCc3ccc(O)cc3)O2)O1 |  |  |  |  |  |  | inactive | inactive |  |  | 0.91 |  | inactive | inactive | inactive | inactive | 10.8 | inactive | inactive | inactive | inhibition [21]: inactive
6 | O=C1C=CC[C@H](C[C@H](F)CCc2ccc(O)cc2)O1 | 3.57 | 36.9 | inactive | 1.48 | 0.13 | 2.44 |  | inactive | 7.13 | 1.36 | 0.96 | 5.36 |  |  |  |  |  |  |  |  | Ki [22]: 24.9 µM
